Drawing on the supplement of paper PMC10307832, this text covers relative viability for one cell line.

Holding throughout (assay): relative viability (nuclei count vs DMSO), 5 days (fraction); higher = more cells survive
Compound in one assay: CN[C@@H]1C[C@H]2O[C@@](C)([C@@H]1OC)n1c3ccccc3c3c4c(c5c6ccccc6n2c5c31)C(=O)NC4 [Staurosporine]
In short, it runs like this: (§1)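 Lung cancer cell lines in 1536-well plates were exposed by pinning to five library-drug doses (not always all listed) √10 apart, following an overnight hold at 37 °C. MetaXpress counted Hoechst-stained nuclei from 4× images taken after 5 days without medium change. Viability is the median ratio of treated-well to vehicle-well nuclei across plates. Plates required control CV below 25% and at least one doubling.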

Compound in a further assay: CC1=C(CC(=O)O)c2cc(F)ccc2/C1=C\c1ccc([S+](C)[O-])cc1 [Sulindac]
The method in brief: as §1

Compound in another assay: O=c1[nH]cc(F)c(=O)[nH]1 [5-Fluorouracil]
The method in brief: as §1

Compound in assay [1]: CN[C@@H]1C[C@H]2O[C@@](C)([C@@H]1OC)n1c3ccccc3c3c4c(c5c6ccccc6n2c5c31)C(=O)NC4 [Staurosporine] + Nc1ncn([C@H]2C[C@H](O)[C@@H](CO)O2)c(=O)n1 [Decitabine] (partner 2 µM)
The method in brief: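 Medians of duplicate plates are given as relative viability. That measure is the nuclei count in treated wells divided by the count in vehicle wells. Counts were taken on 4× images of lung cancer cell lines in 1536-well plates, 5 days after pin-tool dosing the day after seeding with one drug alone or a fixed anchor-drug dose plus five library-drug doses (not always all listed) in √10 steps.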

Turning to UMC-11, the relative viability in the assay with Staurosporine (0.005 µM) is 0.977; with Staurosporine (0.01581 µM) it was 0.328; with Staurosporine (0.05 µM), 0.295; in the assay with Staurosporine (0.1581 µM) it was 0.123; with Staurosporine (0.5 µM) it was 0.0871; with Sulindac (0.08 µM), 1.14. For the same cell line, the relative viability was found to be 1.01 with Sulindac (0.253 µM); 0.824 in the assay with Sulindac (0.8 µM); 0.869 in the assay with Sulindac (2.53 µM); 1.11 with Sulindac (8 µM); 0.952 with 5-Fluorouracil (0.02 µM); 0.783 in the assay with 5-Fluorouracil (0.2 µM). For the same cell line, the relative viability with 5-Fluorouracil (0.6325 µM) was 0.519; in assay [1] (first compound 0.005 µM), 0.76; in assay [1] (first compound 0.05 µM), 0.192; in assay [1] (first compound 0.1581 µM), 0.153; in assay [1] (first compound 0.5 µM), 0.371.
